Results published in PubChem BioAssay (NCI).
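Briefly, cells in 96-well plates were exposed to five compound concentrations for 48 h, and endpoints were estimated by linear interpolation. At the GI50, growth is halved. At the TGI there is no net growth.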

What was measured:
Experiment in all cases: NCI-60 cell line screen, 48 h
[1] = tested on: A498 renal
[2] = tested on: LXFL 529 NSCLC
[3] = tested on: HCT-116 colon
[4] = tested on: KM12 colon
[5] = tested on: SW-620 colon
[6] = tested on: LOX IMVI melanoma
[7] = tested on: UACC-257 melanoma
[8] = tested on: XF 498 CNS
[9] = tested on: KM20L2 colon
[10] = tested on: DMS 273 small cell lung
[11] = tested on: SN12C renal
[12] = tested on: OVCAR-4 ovarian
[13] = tested on: HOP-62 NSCLC
[14] = tested on: IGROV1 ovarian
[15] = tested on: SK-MEL-2 melanoma
[16] = tested on: EKVX NSCLC
[17] = tested on: SNB-19 CNS
[18] = tested on: NCI-H23 lung
[19] = tested on: M19-MEL melanoma
[20] = tested on: OVCAR-8 ovarian
[21] = tested on: OVCAR-5 ovarian
[22] = tested on: SF-268 CNS
[23] = tested on: SK-MEL-28 melanoma
[24] = tested on: TK-10 renal
[25] = tested on: NCI-H460 lung
[26] = tested on: ACHN renal
[27] = tested on: DMS 114 small cell lung
[28] = tested on: SK-MEL-5 melanoma
[29] = tested on: CCRF-CEM leukemia
[30] = tested on: SF-295 CNS
[31] = tested on: UO-31 renal
[32] = tested on: OVCAR-3 ovarian
[33] = tested on: K-562 leukemia
[34] = tested on: NCI-H522 lung
[35] = tested on: A549 NSCLC
[36] = tested on: MALME-3M melanoma
[37] = tested on: NCI-H226 lung
[38] = tested on: SNB-75 CNS
[39] = tested on: SF-539 CNS
[40] = tested on: HT29 colon
[41] = tested on: RXF 393 renal
[42] = tested on: HL-60(TB) leukemia
[43] = tested on: 786-0 renal
[44] = tested on: COLO 205 colon
[45] = tested on: UACC-62 melanoma
[46] = tested on: HCC-2998 colon
[47] = tested on: HCT-15 colon
[48] = tested on: RXF-631 renal
[49] = tested on: HOP-18 NSCLC
[50] = tested on: M14 melanoma
[51] = tested on: DLD-1 colon
[52] = tested on: U251 CNS
[53] = tested on: SNB-78 CNS
[54] = tested on: SK-OV-3 ovarian
[55] = tested on: SR leukemia
[56] = tested on: HOP-92 NSCLC
[57] = tested on: CAKI-1 renal
[58] = tested on: MOLT-4 leukemia
[59] = tested on: RPMI-8226 leukemia

## CC(=O)OCCOCNC(=S)N/N=C/c1ccc([N+](=O)[O-])o1
[1]
  TGI: > 100 µM
[2]
  TGI: > 100 µM
[3]
  TGI: > 100 µM
[4]
  TGI: > 100 µM
[5]
  TGI: > 100 µM
[6]
  TGI: > 100 µM
[7]
  TGI: > 100 µM
[8]
  TGI: > 100 µM
[9]
  TGI: > 100 µM
[10]
  TGI: > 100 µM
[11]
  TGI: > 100 µM
[12]
  TGI: > 100 µM
[13]
  TGI: > 100 µM
[14]
  TGI: > 100 µM
[15]
  TGI: > 100 µM
[16]
  TGI: > 100 µM
[17]
  TGI: > 100 µM
[18]
  TGI: > 100 µM
[19]
  TGI: 31 µM
[20]
  TGI: > 100 µM
[21]
  TGI: > 100 µM
[22]
  TGI: > 100 µM
[23]
  TGI: > 100 µM
[24]
  TGI: > 100 µM
[25]
  TGI: > 100 µM
[26]
  TGI: > 100 µM
[27]
  TGI: 43.1 µM
[28]
  TGI: > 100 µM
[29]
  TGI: > 100 µM
[30]
  TGI: > 100 µM
[31]
  TGI: > 100 µM
[32]
  TGI: > 100 µM
[33]
  TGI: > 100 µM
[34]
  TGI: > 100 µM
[35]
  TGI: > 100 µM
[36]
  TGI: > 100 µM
[37]
  TGI: > 100 µM
[38]
  TGI: > 100 µM
[39]
  TGI: > 100 µM
[40]
  TGI: > 100 µM
[41]
  TGI: > 100 µM
[42]
  TGI: 39.2 µM
[43]
  TGI: > 100 µM
[44]
  TGI: 42.9 µM
[45]
  TGI: > 100 µM
[46]
  TGI: > 100 µM
[47]
  TGI: > 100 µM
[48]
  TGI: > 100 µM
[49]
  TGI: > 100 µM
[50]
  TGI: > 100 µM
[51]
  TGI: > 100 µM
[52]
  TGI: > 100 µM
[53]
  TGI: > 100 µM
[54]
  TGI: > 100 µM

## O=C(/C=C/c1c(O)ccc2ccccc12)c1ccc([N+](=O)[O-])cc1
[1]
  TGI: > 100 µM
[2]
  TGI: 30.4 µM
[3]
  TGI: 37.4 µM
[4]
  TGI: > 100 µM
[5]
  TGI: > 57.6 µM
[6]
  TGI: 33.4 µM
[7]
  TGI: 74 µM
[8]
  TGI: > 100 µM
[9]
  TGI: > 100 µM
[10]
  TGI: > 100 µM
[11]
  TGI: 39.7 µM
[12]
  TGI: 36 µM
[13]
  TGI: > 100 µM
[14]
  TGI: > 100 µM
[15]
  TGI: > 100 µM
[16]
  TGI: > 100 µM
[17]
  TGI: > 100 µM
[18]
  TGI: 60.3 µM
[19]
  TGI: 35.4 µM
[55]
  TGI: > 100 µM
[20]
  TGI: > 61.6 µM
[21]
  TGI: > 100 µM
[22]
  TGI: > 100 µM
[23]
  TGI: > 67.6 µM
[24]
  TGI: > 96.4 µM
[25]
  TGI: > 100 µM
[26]
  TGI: 54 µM
[27]
  TGI: 41.1 µM
[28]
  TGI: 34.5 µM
[29]
  TGI: > 75.8 µM
[30]
  TGI: > 100 µM
[31]
  TGI: > 61.7 µM
[32]
  TGI: 39.8 µM
[33]
  TGI: > 100 µM
[34]
  TGI: 31.2 µM
[35]
  TGI: > 100 µM
[36]
  TGI: 49.7 µM
[37]
  TGI: > 100 µM
[38]
  TGI: > 100 µM
[39]
  TGI: > 90.8 µM
[40]
  TGI: > 100 µM
[41]
  TGI: 61.8 µM
[42]
  TGI: 48.6 µM
[43]
  TGI: > 55.6 µM
[44]
  TGI: > 72.5 µM
[56]
  TGI: 30.9 µM
[45]
  TGI: 33.3 µM
[57]
  TGI: > 74 µM
[46]
  TGI: > 100 µM
[47]
  TGI: > 66.8 µM
[49]
  TGI: 47.6 µM
[50]
  TGI: 41.6 µM
[58]
  TGI: > 90.4 µM
[51]
  TGI: 40.8 µM
[52]
  TGI: > 100 µM
[53]
  TGI: 66.4 µM
[54]
  TGI: > 100 µM
[59]
  TGI: > 100 µM

## O=c1cc(-c2ccc3c(c2)OCO3)[nH]c2cc3c(cc12)OCO3
[2]
  TGI: > 100 µM
[3]
  GI50: 38 µM
  TGI: > 100 µM
[4]
  TGI: > 100 µM
[5]
  TGI: > 100 µM
[6]
  TGI: > 100 µM
[8]
  TGI: > 100 µM
[9]
  GI50: 26.6 µM
  TGI: 74.5 µM
[10]
  TGI: > 100 µM
[11]
  TGI: > 100 µM
[12]
  TGI: > 100 µM
[13]
  TGI: 63 µM
[14]
  TGI: > 100 µM
[15]
  TGI: > 100 µM
[16]
  TGI: > 100 µM
[17]
  TGI: > 100 µM
[18]
  TGI: > 100 µM
[19]
  TGI: 78.2 µM
[55]
  TGI: 52.1 µM
[20]
  TGI: 78.1 µM
[22]
  GI50: 46.8 µM
  TGI: > 100 µM
[23]
  TGI: > 100 µM
[24]
  TGI: > 100 µM
[25]
  TGI: > 100 µM
[26]
  TGI: > 100 µM
[27]
  GI50: 24 µM
  TGI: 96.1 µM
[28]
  GI50: 25.4 µM
  TGI: > 100 µM
[29]
  TGI: > 100 µM
[30]
  GI50: 29.6 µM
  TGI: 87.8 µM
[31]
  TGI: > 100 µM
[32]
  GI50: 19.5 µM
  TGI: 43.2 µM
[33]
  TGI: > 100 µM
[34]
  TGI: > 100 µM
[35]
  TGI: > 100 µM
[36]
  TGI: 97.8 µM
[37]
  TGI: > 100 µM
[38]
  TGI: 13.7 µM
[39]
  TGI: 69.1 µM
[40]
  TGI: > 100 µM
[41]
  GI50: 20.8 µM
  TGI: 66.5 µM
[42]
  TGI: 66.6 µM
[43]
  TGI: > 100 µM
[44]
  TGI: > 100 µM
[56]
  TGI: > 100 µM
[45]
  TGI: > 100 µM
[57]
  TGI: > 100 µM
[46]
  TGI: > 100 µM
[47]
  TGI: > 100 µM
[49]
  TGI: > 100 µM
[50]
  TGI: > 100 µM
[58]
  TGI: > 100 µM
[51]
  TGI: > 100 µM
[52]
  TGI: 99 µM
[53]
  TGI: > 100 µM
[54]
  TGI: 99.4 µM
[59]
  TGI: > 100 µM
